Assays:
[1] = molecular target: T1, phosphorylated ERBB2 (pERBB2) (Homo sapiens, UniProt P04626); assay: Detection of phosphorylated ERBB2 (pERBB2) by ELISA in BT-474 cells; type: cell-based; settings: four hours incubation with compound, OD 450 nm
T1 construct: endogenous in cells; host or cells: BT-474
Description: BT-474 cells were seeded into a 96-well at 2.0*10^4 cells/100 μl/well.
Compounds were dissolved and serially diluted in DMSO. The compounds were then were added, mixed, and incubated for four hours at 37° C., 5% CO2. Compounds were added using four-fold dilutions at final concentrations ranging from 10 μM to 0.01 nM.
Following the four hour incubation with compounds, cell lysates were prepared. Plates were centrifuged for 5 min at 3000 RPM, and supernatant was removed from each well. Cells were washed 3 times by resuspension in 150 μl PBS, followed by centrifugation and removal of the supernatant, as above. […] Cells were incubated with lysis buffer for 1 hour at 4° C., and then stored at −80° C.
Enzyme-linked immunosorbent assays (ELISA) were performed to measure phosphorylated ERBB2 levels. […] The next day, plates were washed with PBS+0.05% Tween20 (PBST). 150 μl of 5% BSA blocking solution was added for 1 hour at room temperature, with shaking. Plates were washed with PBST. Cell lysates were thawed and 100 μl of lysate was added to the ELISA plate. The plates were incubated for 2 hours at room temperature, with shaking. […] Plates were incubated for 1 hour at room temperature, with shaking. Plates were then washed with PBST, and 100 μl TMB substrate solution (R&D Systems, cat #DY999) was added. Plate were incubated in the dark for 20 minutes at room temperature. 50 μl of Stop solution (R&D Systems, cat #DY994) (50 μl) was added to each well and mixed.
Optical density at 450 nm was read on an EnSpire plate reader (Perkin Elmer). The remaining kinase activity by calculated using the following formula: % Relative activity=100×(A450sample−A450LC)/(A450HC−A450LC). The low and high control values (“LC” and “HC”) were generated from lysate from wells without cells or with cells treated with 0.1% DMSO, respectively.

[2] = molecular target: T2, Ba/F3 ERBB2 A775_G776insYVMA (Homo sapiens, UniProt P04626, DUP772-775, cells depend on it); assay: Cell viability assay (CellTiter Glo); type: cell-based, mouse; settings: 72 hours; 300 cells per well, 384-well plates (Table B5); read-out: Cell Line: Ba/F3 ERBB2 A775 G776ins YVMA IC50
T2 construct: Ba/F3 cell lines were engineered to express human ERBB2 or EGFR kinases, rendering the cells IL-3 independent
T2 sequence (P04626 with tags, fused parts or gaps DUP772-775): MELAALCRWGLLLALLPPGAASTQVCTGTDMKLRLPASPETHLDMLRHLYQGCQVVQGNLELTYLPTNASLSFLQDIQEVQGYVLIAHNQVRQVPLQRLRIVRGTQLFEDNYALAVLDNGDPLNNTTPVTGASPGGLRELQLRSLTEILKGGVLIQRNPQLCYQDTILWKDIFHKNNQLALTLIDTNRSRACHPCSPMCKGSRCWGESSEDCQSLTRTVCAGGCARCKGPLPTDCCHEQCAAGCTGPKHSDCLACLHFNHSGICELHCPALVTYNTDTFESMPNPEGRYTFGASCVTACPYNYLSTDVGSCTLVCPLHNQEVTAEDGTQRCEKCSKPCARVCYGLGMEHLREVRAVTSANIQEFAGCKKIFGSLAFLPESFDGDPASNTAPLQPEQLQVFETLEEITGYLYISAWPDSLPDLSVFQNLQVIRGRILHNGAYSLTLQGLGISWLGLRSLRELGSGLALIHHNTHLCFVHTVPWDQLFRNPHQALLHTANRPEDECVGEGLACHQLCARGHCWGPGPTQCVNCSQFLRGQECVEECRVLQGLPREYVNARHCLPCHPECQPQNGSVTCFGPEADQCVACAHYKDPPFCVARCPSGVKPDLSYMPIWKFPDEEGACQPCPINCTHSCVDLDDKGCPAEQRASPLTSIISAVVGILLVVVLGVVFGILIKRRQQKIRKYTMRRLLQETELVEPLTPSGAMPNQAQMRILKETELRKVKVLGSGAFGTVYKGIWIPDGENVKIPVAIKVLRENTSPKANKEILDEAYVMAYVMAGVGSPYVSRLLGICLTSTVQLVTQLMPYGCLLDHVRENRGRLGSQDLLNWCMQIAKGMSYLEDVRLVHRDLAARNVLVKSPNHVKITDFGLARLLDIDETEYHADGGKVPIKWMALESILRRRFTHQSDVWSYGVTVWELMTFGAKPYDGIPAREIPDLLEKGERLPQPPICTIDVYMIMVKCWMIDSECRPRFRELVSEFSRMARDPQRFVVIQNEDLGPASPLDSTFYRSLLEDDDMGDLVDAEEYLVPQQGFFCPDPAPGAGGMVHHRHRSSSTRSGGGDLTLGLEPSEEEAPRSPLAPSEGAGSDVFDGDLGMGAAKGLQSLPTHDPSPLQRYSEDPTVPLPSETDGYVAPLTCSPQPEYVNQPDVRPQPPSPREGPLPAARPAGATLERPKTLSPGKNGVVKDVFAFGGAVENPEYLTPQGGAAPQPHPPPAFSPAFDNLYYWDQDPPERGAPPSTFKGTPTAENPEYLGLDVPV
Description: Cells were treated with compounds, and cell viability was measured as a metric of kinase inhibition.
The Ba/F3 cell line is IL-3-dependent mouse cell line derived from the C3H mouse strain. Ba/F3 cell lines were engineered to express human ERBB2 or EGFR kinases, rendering the cells IL-3 independent. The lines were generated via retroviral transduction utilizing a Moloney murine leukemia virus (MMLV) promoter, and constructs are stably integrated into the cell genome.
Similarly, Ba/F3 cell lines engineered to express EGFR, ERBB2, or ERBB2 mutants were grown, harvested, counted and seeded at 3000 cells per well in 96-well plates for the data sets shown in Tables B3-B4, and seeded at 300 cells per well in 384-well plates for the data set shown in Table B5. A subset of wells contained media only (low control, “LC”).
Table B2 provides the growth media and number of cells seeded per well for the each cell line.
Compounds were dissolved in DMSO and serially diluted. Serially-diluted compound or a DMSO only control (high control, “HC”) was added to the plated cells in each well. […] The final proportion of DMSO never exceeded 0.1%.
Plates were placed in a 37° C., 5% CO2 incubator for 72 hours. Plates were then removed from the incubator and equilibrated for 15 minutes at room temperature. 40 IA of CellTiter Glo reagent (Promega) was added to measure the relative level of metabolically active cells by quantifying intracellular ATP concentrations. Plates were incubated for 30 minutes at room temperature, and luminescence was measured. Percent viability was normalized to a vehicle control only using the following formula: % viability=100×(LumSample−LumLC) (LumHC−LumLC). Graphical curves were fitted using a nonlinear regression model with a sigmoidal dose response.

[3] = molecular target: T3, phosphorylated EGFR (pEGFR) (Homo sapiens, UniProt P00533); assay: Detection of phosphorylated EGFR (pEGFR) in EGF-stimulated A431 cells (AlphaLISA); type: cell-based; settings: A431 cells (10% FBS), 4 hours with compound, then EGF 30 ng/mL for 10 minutes
T3 construct: endogenous in cells; host or cells: A431
T3 sequence (P00533 25-1210): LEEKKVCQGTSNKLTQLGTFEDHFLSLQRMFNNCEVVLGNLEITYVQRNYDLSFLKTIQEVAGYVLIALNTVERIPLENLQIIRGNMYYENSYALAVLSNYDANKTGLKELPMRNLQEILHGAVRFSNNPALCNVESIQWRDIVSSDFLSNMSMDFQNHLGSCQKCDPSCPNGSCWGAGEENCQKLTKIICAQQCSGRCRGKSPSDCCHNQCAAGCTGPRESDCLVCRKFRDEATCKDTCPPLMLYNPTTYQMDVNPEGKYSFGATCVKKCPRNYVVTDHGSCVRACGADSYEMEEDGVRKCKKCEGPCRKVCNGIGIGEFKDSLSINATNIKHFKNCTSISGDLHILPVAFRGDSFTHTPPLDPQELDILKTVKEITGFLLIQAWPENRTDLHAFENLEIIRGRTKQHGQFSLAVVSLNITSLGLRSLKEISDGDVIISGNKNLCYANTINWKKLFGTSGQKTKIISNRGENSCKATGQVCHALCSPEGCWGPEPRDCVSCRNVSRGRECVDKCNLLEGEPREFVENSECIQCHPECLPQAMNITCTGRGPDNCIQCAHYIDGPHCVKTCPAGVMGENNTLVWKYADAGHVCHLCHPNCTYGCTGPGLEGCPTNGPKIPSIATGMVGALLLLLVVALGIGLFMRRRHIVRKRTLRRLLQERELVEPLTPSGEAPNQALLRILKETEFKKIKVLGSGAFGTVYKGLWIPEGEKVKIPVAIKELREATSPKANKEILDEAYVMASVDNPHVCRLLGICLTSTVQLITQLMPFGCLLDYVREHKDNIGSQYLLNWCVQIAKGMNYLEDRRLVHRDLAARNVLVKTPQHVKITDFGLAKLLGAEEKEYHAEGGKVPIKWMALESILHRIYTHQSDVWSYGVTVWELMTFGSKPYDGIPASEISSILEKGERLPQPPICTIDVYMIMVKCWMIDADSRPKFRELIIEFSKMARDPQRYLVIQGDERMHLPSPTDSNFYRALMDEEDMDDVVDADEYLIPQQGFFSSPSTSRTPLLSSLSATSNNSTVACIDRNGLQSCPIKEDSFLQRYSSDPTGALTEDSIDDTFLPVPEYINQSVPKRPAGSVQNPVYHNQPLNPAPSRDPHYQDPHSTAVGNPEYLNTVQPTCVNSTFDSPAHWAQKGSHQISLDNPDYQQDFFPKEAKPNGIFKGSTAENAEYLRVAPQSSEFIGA
Description: Enzyme-linked immunosorbent assays (ELISA) were performed to measure phosphorylated EGFR levels using A431 cells (10% FBS). A431 (1.0*10^4 cells/40 μl/well) cells were seeded in 384 well. Compounds were dissolved in DMSO, serially diluted in DMSO and then were added, mixed, and incubated for 4 hours at 37° C., 5% CO2. Following the 4-hours incubation, cells were stimulated for 10 minutes with EGF (Invitrogen, cat #PHG0311) at a final concentration of 30 ng/mL in the incubator. The media was aspirated and cells were lysed in 10 μL lysis buffer with protease and phosphatase inhibitors (PerkinElmer, cat #ALSU-PEGFR-A50K). The plates were placed on a shaker for 5 minutes and then incubated for 30 min at 4° C. for complete lysis. The lysate was transferred to an Optiplate (Perkin Elmer, cat #6007290).
Acceptor mix (PerkinElmer, cat #ALSU-PEGFR-A50K) was prepared just before use and 5 μL was dispensed to all the wells, followed by a 1.5-2 h incubation at room temperature in dark. The donor mix (PerkinElmer, cat #ALSU-PEGFR-A50K) was prepared under low light conditions prior to use and […] of donor mix was added to all the wells under subdued lighting or green filters. The plates were placed on a shaker for 5 min, sealed, and incubated overnight at room temperature in dark. Plates were read on the Envision (PerkinElmer) using standard AlphaLISA settings.
The percentage of inhibition on EGFR phosphorylation was calculated following equation: % Inhibition=100×(LumHC−LumSample)/(LumHC−LumLC). The low and high controls (LC/HC) are generated from lysate from wells with cells treated with DMSO or […] Staurosporine (BioAustralis, cat #BIA-S1086), […]. IC50 values were calculated by fitting the Curve using XLfit (v5.3.1.3), equation 201: Y=Bottom+(Top−Bottom)/(1+10^((LogIC50−X)*HillSlope)).

T1 sequence (P04626 23-1255): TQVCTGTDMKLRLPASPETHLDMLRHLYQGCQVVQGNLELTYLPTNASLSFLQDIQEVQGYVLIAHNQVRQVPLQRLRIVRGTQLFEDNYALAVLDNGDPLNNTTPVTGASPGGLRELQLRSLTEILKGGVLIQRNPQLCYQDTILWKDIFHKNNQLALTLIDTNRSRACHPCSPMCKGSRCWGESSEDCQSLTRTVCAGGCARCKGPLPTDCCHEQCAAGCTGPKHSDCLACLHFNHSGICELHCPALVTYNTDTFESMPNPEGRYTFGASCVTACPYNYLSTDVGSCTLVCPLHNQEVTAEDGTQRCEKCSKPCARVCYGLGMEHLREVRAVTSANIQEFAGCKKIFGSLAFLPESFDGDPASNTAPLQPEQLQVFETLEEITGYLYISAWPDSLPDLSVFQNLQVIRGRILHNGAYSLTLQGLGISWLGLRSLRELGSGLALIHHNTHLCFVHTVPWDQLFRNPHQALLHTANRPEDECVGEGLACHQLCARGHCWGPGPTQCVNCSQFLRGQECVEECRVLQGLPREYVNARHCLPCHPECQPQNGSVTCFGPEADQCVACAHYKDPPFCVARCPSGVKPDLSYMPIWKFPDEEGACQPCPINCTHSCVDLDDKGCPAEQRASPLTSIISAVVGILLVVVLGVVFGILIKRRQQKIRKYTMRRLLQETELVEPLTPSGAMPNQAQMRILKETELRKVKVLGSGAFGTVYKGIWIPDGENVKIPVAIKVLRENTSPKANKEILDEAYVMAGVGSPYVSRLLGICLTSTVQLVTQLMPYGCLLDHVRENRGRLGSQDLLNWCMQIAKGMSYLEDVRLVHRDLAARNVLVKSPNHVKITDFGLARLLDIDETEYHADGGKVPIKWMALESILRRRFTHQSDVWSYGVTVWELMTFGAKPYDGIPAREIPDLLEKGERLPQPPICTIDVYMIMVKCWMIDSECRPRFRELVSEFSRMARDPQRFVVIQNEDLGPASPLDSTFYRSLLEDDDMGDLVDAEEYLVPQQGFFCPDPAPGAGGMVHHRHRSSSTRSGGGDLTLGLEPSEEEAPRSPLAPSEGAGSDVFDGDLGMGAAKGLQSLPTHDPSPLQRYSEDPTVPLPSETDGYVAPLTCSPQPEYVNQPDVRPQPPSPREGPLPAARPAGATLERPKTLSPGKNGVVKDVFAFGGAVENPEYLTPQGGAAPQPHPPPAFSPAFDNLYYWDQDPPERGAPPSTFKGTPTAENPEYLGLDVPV

IC50 [1] [µM] | IC50 [3] [µM] | SMILES | GI50 [2] [µM]
0.0173 | 0.68 | Cc1cc(Nc2ncnc3ccc(NC(=O)C#CC4(C)CC4)cc23)ccc1Oc1ccn2ncnc2c1 [Compound 185, N-{4-[(3-methyl-4-{[1,2,4]triazolo[1,5-a]pyridin-7-yloxy}phenyl)amino]quinazolin-6-yl}-3-(1-methylcyclopropyl)prop-2-ynamide] | 0.00511
0.0037 | 0.0696 | CC#CC(=O)Nc1cc2c(Nc3ccc(Oc4ccn5ncnc5c4)c(Cl)c3)ncnc2cc1OCCN(C)C [Compound 200, N-(4-((4-([1,2,4]triazolo[1,5-a]pyridin-7-yloxy)-3-chlorophenyl)amino)-7-(2-(dimethylamino)ethoxy)quinazolin-6-yl)but-2-ynamide] | 0.00263
0.104 | 7.07 | CC#CC(=O)Nc1cc2c(Nc3ccc(Oc4ccn5ncnc5c4)c(C4CC4)c3)ncnc2cc1OCCN(C)C [Compound 195, N-{4-[(3-cyclopropyl-4-{[1,2,4]triazolo[1,5-a]pyridin-7-yloxy}phenyl)amino]-7-[2-(dimethylamino)ethoxy]quinazolin-6-yl}but-2-ynamide] | 0.0868
0.0366 | 0.101 | CC#CC(=O)Nc1ccc2ncnc(Nc3ccc(Oc4ccc5nccnc5c4)c(C)c3)c2c1 [Compound 211, N-(4-{[3-methyl-4-(quinoxalin-6-yloxy)phenyl]amino}quinazolin-6-yl)but-2-ynamide] | 0.0032
1.18 | 2.26 | CCOc1cc2ncnc(Nc3ccc(Oc4ccn5ncnc5c4)c(C)c3)c2cc1NC(=O)C#CCN1CCN(C)CC1 [Compound 208, N-{7-ethoxy-4-[(3-methyl-4-{[1,2,4]triazolo[1,5-a]pyridin-7-yloxy}phenyl)amino]quinazolin-6-yl}-4-(4-methylpiperazin-1-yl)but-2-ynamide triformate] | > 0.5
0.00623 | 0.508 | CC#CC(=O)Nc1cc2c(Nc3ccc(Oc4ccn5ncnc5c4)c(F)c3)ncnc2cc1OCCN(C)C [Compound 198, N-(4-((4-([1,2,4]triazolo[1,5-a]pyridin-7-yloxy)-3-fluorophenyl)amino)-7-(2-(dimethylamino)ethoxy)quinazolin-6-yl)but-2-ynamide] | 0.0115
0.0932 | > 10 | Cc1cc(Nc2ncnc3cc(OCCN(C)C)c(NC(=O)C#CC(C)(C)C)cc23)ccc1Oc1ccn2ncnc2c1 [Compound 191, N-{7-[2-(dimethylamino)ethoxy]-4-[(3-methyl-4-{[1,2,4]triazolo[1,5-a]pyridin-7-yloxy}phenyl)amino]quinazolin-6-yl}-4,4-dimethylpent-2-ynamide] | 0.177
0.0121 | 1.85 | CC#CC(=O)Nc1ccc2ncnc(Nc3cc(C)c(Oc4ccn5ncnc5c4)cc3F)c2c1F [Compound 210, N-{5-fluoro-4-[(2-fluoro-5-methyl-4-{[1,2,4]triazolo[1,5-a]pyridin-7-yloxy}phenyl)amino]quinazolin-6-yl}but-2-ynamide] | 0.0108
1.25 | > 10 | CC#CC(=O)Nc1c(OCCCN(C)C)cc2ncnc(Nc3ccc(Cc4ccn5ncnc5c4)c(C)c3)c2c1F [Compound 209, N-{7-[3-(dimethylamino)propoxy]-5-fluoro-4-[(3-methyl-4-{[1,2,4]triazolo[1,5-a]pyridin-7-ylmethyl}phenyl)amino]quinazolin-6-yl}but-2-ynamide] | > 0.5
0.0305 | 0.434 | CNCCOc1cc2ncnc(Nc3ccc(Oc4ccn5ncnc5c4)c(C)c3)c2cc1NC(=O)C#CC1CC1 [Compound 187, 3-cyclopropyl-N-{4-[(3-methyl-4-{[1,2,4]triazolo[1,5-a]pyridin-7-yloxy}phenyl)amino]-7-[2-(methylamino)ethoxy]quinazolin-6-yl}prop-2-ynamide] | 0.0196
0.00836 | 0.943 | CC#CC(=O)Nc1cc2c(Nc3ccc(Cc4ccn5ncnc5c4)c(C)c3)ncnc2cc1OCCN(C)C [Compound 196, N-(4-((4-([1,2,4]triazolo[1,5-a]pyridin-7-ylmethyl)-3-methylphenyl)amino)-7-(2-(dimethylamino)ethoxy)quinazolin-6-yl)but-2-ynamide] | 0.00996
0.0138 | 0.658 | CC#CC(=O)Nc1cc2c(Nc3ccc(Oc4ccn5ncnc5c4)c(Cl)c3F)ncnc2cc1OCCN(C)C [Compound 193, N-(4-((4-([1,2,4]triazolo[1,5-a]pyridin-7-yloxy)-3-chloro-2-fluorophenyl)amino)-7-(2-(dimethylamino)ethoxy)quinazolin-6-yl)but-2-ynamide] | 0.00932
0.00951 | 1.35 | CC#CC(=O)Nc1cc2c(Nc3ccc(Oc4ccn5ncnc5c4)c(C)c3)ncnc2cc1OCCN1CCCC1 [Compound 192, N-{4-[(3-methyl-4-{[1,2,4]triazolo[1,5-a]pyridin-7-yloxy}phenyl)amino]-7-[2-(pyrrolidin-1-yl)ethoxy]quinazolin-6-yl}but-2-ynamide] | 0.011
0.0047 | 0.0575 | CC#CC(=O)Nc1cc2c(Nc3ccc(Oc4ccn5ncnc5c4)c(C)c3)ncnc2cn1 [Compound 199, N-(4-((4-([1,2,4]triazolo[1,5-a]pyridin-7-yloxy)-3-methylphenyl)amino)pyrido[3,4-d]pyrimidin-6-yl)but-2-ynamide] | 0.00251
